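The compound was tested at five concentrations on cells cultured in 96-well plates, with a 48-hour exposure period. Abbreviation: GI50, concentration required for 50% inhibition of growth.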 Active and inactive are the calls of the source. No stated cut-off is given here; in the data, active = GI50 up to about 1.1 µM and inactive = higher.
How the values were obtained:
Test in all cases: growth of human tumour cells (NCI), 48 h
CAKI-1 = test system: CAKI-1
OVCAR-3 = test system: OVCAR-3
HCT-15 = test system: HCT-15
DMS-114 = test system: DMS-114
CCRF-CEM = test system: CCRF-CEM
MOLT-4 = test system: MOLT-4
RXF 631 = test system: RXF 631
HOP-92 = test system: HOP-92
SK-OV-3 = test system: SK-OV-3
M14 = test system: M14
SW-620 = test system: SW-620
K562 = test system: K562
OVCAR-4 = test system: OVCAR-4
DLD-1 = test system: DLD-1
786-0 = test system: 786-0
SK-MEL-2 = test system: SK-MEL-2
NCI-H522 = test system: NCI-H522
XF498 = test system: XF498
U-251 = test system: U-251
A549 = test system: A549
LOX IMVI = test system: LOX IMVI
EKVX = test system: EKVX
DMS-273 = test system: DMS-273
UO-31 = test system: UO-31
SNB-78 = test system: SNB-78
HCT-116 = test system: HCT-116
OVCAR-5 = test system: OVCAR-5
SNB-19 = test system: SNB-19
UACC-257 = test system: UACC-257
HOP-18 = test system: HOP-18
COLO 205 = test system: COLO 205
LXFL 529 = test system: LXFL 529
SN12C = test system: SN12C
SF-268 = test system: SF-268
OVCAR-8 = test system: OVCAR-8
SR = test system: SR
Malme-3M = test system: Malme-3M
HT-29 = test system: HT-29
KM-20L2 = test system: KM-20L2
HL-60 = test system: HL-60
TK-10 = test system: TK-10
ACHN = test system: ACHN
SK-MEL-28 = test system: SK-MEL-28
UACC-62 = test system: UACC-62
NCI-H226 = test system: NCI-H226
IGROV-1 = test system: IGROV-1
HOP-62 = test system: HOP-62
SF-295 = test system: SF-295
SF-539 = test system: SF-539
SNB-75 = test system: SNB-75
RPMI-8226 = test system: RPMI-8226
SK-MEL-5 = test system: SK-MEL-5
NCI-H23 = test system: NCI-H23
NCI-H460 = test system: NCI-H460
HCC 2998 = test system: HCC 2998
KM12 = test system: KM12

With `COc1cc2c(cn1)[nH]c1ccccc12` the GI50 (CAKI-1) was 94.2 µM (inactive), the GI50 (OVCAR-3) was > 100 µM (inactive) and the GI50 (HCT-15) was greater than 100 µM. For the same compound, the GI50 (DMS-114) was 81.5 µM (inactive), the GI50 (CCRF-CEM) was > 100 µM (inactive) and the GI50 (MOLT-4) was > 100 µM (inactive). For the same compound, the GI50 (RXF 631) was > 100 µM (inactive), the GI50 (HOP-92) was > 100 µM (inactive) and the GI50 (SK-OV-3) was > 100 µM (inactive). The GI50 (M14) was > 100 µM (inactive), the GI50 (SW-620) was 46.3 µM (inactive) and the GI50 (K562) was > 100 µM (inactive). The GI50 (OVCAR-4) was > 100 µM (inactive), the GI50 (DLD-1) was > 100 µM (inactive) and the GI50 (786-0) was > 100 µM (inactive). For the same compound, the GI50 (SK-MEL-2) was > 100 µM (inactive), the GI50 (NCI-H522) was 61.2 µM (inactive) and the GI50 (XF498) was 35.8 µM (inactive). The GI50 (U-251) was > 100 µM (inactive), the GI50 (A549) was > 100 µM (inactive) and the GI50 (LOX IMVI) was > 100 µM (inactive). The GI50 (EKVX) was > 100 µM (inactive), the GI50 (DMS-273) was > 100 µM (inactive) and the GI50 (UO-31) was > 100 µM (inactive). For the same compound, the GI50 (SNB-78) was 59.3 µM (inactive), the GI50 (HCT-116) was > 100 µM (inactive) and the GI50 (OVCAR-5) was > 100 µM (inactive). The GI50 (SNB-19) was > 100 µM (inactive), the GI50 (UACC-257) was 85.1 µM (inactive) and the GI50 (HOP-18) was > 100 µM (inactive). The GI50 (COLO 205) was > 100 µM (inactive), the GI50 (LXFL 529) was 72.3 µM (inactive) and the GI50 (SN12C) was > 100 µM (inactive). The GI50 (SF-268) was 88.1 µM (inactive), the GI50 (OVCAR-8) was > 100 µM (inactive) and the GI50 (SR) was > 100 µM (inactive). For the same compound, the GI50 (Malme-3M) was > 100 µM (inactive), the GI50 (HT-29) was > 100 µM (inactive) and the GI50 (KM-20L2) was > 100 µM (inactive). The GI50 (HL-60) was > 100 µM (inactive), the GI50 (TK-10) was > 100 µM (inactive) and the GI50 (ACHN) was > 100 µM (inactive). For the same compound, the GI50 (SK-MEL-28) was 67.5 µM (inactive), the GI50 (UACC-62) was 53 µM (inactive) and the GI50 (NCI-H226) was > 100 µM (inactive). The GI50 (IGROV-1) was > 100 µM (inactive), the GI50 (HOP-62) was > 100 µM (inactive) and the GI50 (SF-295) was > 100 µM (inactive). The GI50 (SF-539) was > 100 µM (inactive), the GI50 (SNB-75) was 55.8 µM (inactive) and the GI50 (RPMI-8226) was > 100 µM (inactive). The GI50 (SK-MEL-5) was 47.4 µM (inactive), the GI50 (NCI-H23) was > 100 µM (inactive) and the GI50 (NCI-H460) was > 100 µM (inactive). The GI50 (HCC 2998) was > 100 µM (inactive) and the GI50 (KM12) was > 100 µM (inactive).

Source: ChEMBL document CHEMBL1201862, “PubChem BioAssay data set” (2004)
